Source: PubChem BioAssay AID330 (DTP/NCI, 2004)
“And” between values parts separate entries of the source, which are not always exact repeats. Equal entries are not always repeated. Inconclusive results and toxic doses are left out. The calls were made as follows: active = survival T/C of 150% or more; inactive = T/C below 125% in these data.

System: P388 leukemia ip, CD2F1 mice, survival T/C
Test: NCI In Vivo Anticancer Drug Screen. Data for tumor model P388 Leukemia (intraperitoneal) in CD2F1 (CDF1) mice
Details: endpoint: median survival time, higher = longer survival
In short: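 Mice carrying the transplanted tumor received test compound or vehicle. Survival was recorded in each group, and the value is the treated-group measurement divided by that of the vehicle-treated control group.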

[1] = dose: 6.25 mg/kg/injection, schedule: Q01DX009 (ip), vehicle: saline with Tween-80
[2] = dose: 50.0 mg/kg/injection, schedule: Q01DX009 (ip), vehicle: saline
[3] = dose: 100.0 mg/kg/injection, schedule: Q01DX009 (ip), vehicle: saline
[4] = dose: 25.0 mg/kg/injection, schedule: Q01DX009 (ip), vehicle: saline
[5] = dose: 100.0 mg/kg/injection, schedule: Q04DX003 (ip), vehicle: saline with Tween-80
[6] = dose: 200.0 mg/kg/injection, schedule: Q04DX003 (ip), vehicle: saline with Tween-80
[7] = dose: 50.0 mg/kg/injection, schedule: Q01DX009 (ip), vehicle: saline with Tween-80
[8] = dose: 100.0 mg/kg/injection, schedule: Q01DX009 (ip), vehicle: saline with Tween-80
[9] = dose: 200.0 mg/kg/injection, schedule: Q01DX009 (ip), vehicle: saline with Tween-80
[10] = dose: 50.0 mg/kg/injection, schedule: Q01DX005 (ip), vehicle: Klucel (hydroxypropylcellulose) (HPC)
[11] = dose: 100.0 mg/kg/injection, schedule: Q01DX005 (ip), vehicle: Klucel (hydroxypropylcellulose) (HPC)
[12] = dose: 200.0 mg/kg/injection, schedule: Q01DX005 (ip), vehicle: Klucel (hydroxypropylcellulose) (HPC)

Measured: T/C

O=C(CCCCCCCCc1ccccc1)c1c(O)cccc1O
inactive: dose: 6.0 mg/kg/injection, schedule: Q01DX009 (ip), vehicle: Klucel (hydroxypropylcellulose) (HPC) 95 % of control | dose: 12.0 mg/kg/injection, schedule: Q01DX009 (ip), vehicle: Klucel (hydroxypropylcellulose) (HPC) 88 % of control | dose: 24.0 mg/kg/injection, schedule: Q01DX009 (ip), vehicle: Klucel (hydroxypropylcellulose) (HPC) 97 % of control | dose: 48.0 mg/kg/injection, schedule: Q01DX009 (ip), vehicle: Klucel (hydroxypropylcellulose) (HPC) 97 % of control

OCC1c2ccc(Cl)cc2Nc2ccc(Cl)cc21 (stereo unspecified)
inactive: dose: 100.0 mg/kg/injection, schedule: Q01DX001 (ip), vehicle: saline with Tween-80 104 % of control | dose: 200.0 mg/kg/injection, schedule: Q01DX001 (ip), vehicle: saline with Tween-80 95 % of control | dose: 400.0 mg/kg/injection, schedule: Q01DX001 (ip), vehicle: saline with Tween-80 100 % of control

COC1=C(OC)C(=O)C(SC/C=C(\C)CCCC(C)CCCC(C)CCCC(C)C)=CC1=O (stereo unspecified)
inactive: [1] 105 % of control and 106 % of control and 113 % of control

c1ccc(C2=C(c3ccccc3)c3ccccc3CO2)cc1
inactive: dose: 100.0 mg/kg/injection, schedule: Q01DX001 (ip), vehicle: saline 105 % of control | dose: 200.0 mg/kg/injection, schedule: Q01DX001 (ip), vehicle: saline 100 % of control | dose: 400.0 mg/kg/injection, schedule: Q01DX001 (ip), vehicle: saline 100 % of control

COC(=N)C(Cl)(Cl)Cl
inactive: [2] 97 % of control | [3] 100 % of control | dose: 200.0 mg/kg/injection, schedule: Q01DX009 (ip), vehicle: saline 95 % of control

c1ccc(Cn2cc(CCc3ccncc3)c3ccccc32)cc1
inactive: [4] 100 % of control | [2] 100 % of control | [3] 100 % of control

CCCCCCCCCCCCn1ccnc1
inactive: [5] 102 % of control | [6] 97 % of control

COCCCn1cnn2c(=O)c3ccccc3nc2c1=O
inactive: dose: 60.0 mg/kg/injection, schedule: Q01DX005 (ip), vehicle: saline with Tween-80 103 % of control | dose: 120.0 mg/kg/injection, schedule: Q01DX005 (ip), vehicle: saline with Tween-80 99 % of control | dose: 240.0 mg/kg/injection, schedule: Q01DX005 (ip), vehicle: saline with Tween-80 100 % of control

C=C(C(=O)OC)C1C=CCC1 (stereo unspecified)
inactive: dose: 12.5 mg/kg/injection, schedule: Q01DX009 (ip), vehicle: distilled water + Tween-80 100 % of control | dose: 25.0 mg/kg/injection, schedule: Q01DX009 (ip), vehicle: distilled water + Tween-80 100 % of control | dose: 50.0 mg/kg/injection, schedule: Q01DX009 (ip), vehicle: distilled water + Tween-80 111 % of control | dose: 100.0 mg/kg/injection, schedule: Q01DX009 (ip), vehicle: distilled water + Tween-80 101 % of control | dose: 200.0 mg/kg/injection, schedule: Q01DX009 (ip), vehicle: distilled water + Tween-80 86 % of control

CCCCN(CCCC)c1nsc(N2CCOCC2)n1
inactive: [7] 94 % of control | [8] 100 % of control | [9] 108 % of control

O=C1c2ccccc2C(=O)N1/N=[N+](\[O-])N1Cc2ccccc2C1
inactive: dose: 25.0 mg/kg/injection, schedule: Q01DX005 (ip), vehicle: Klucel (hydroxypropylcellulose) (HPC) 97 % of control | [10] 101 % of control | [11] 99 % of control | [12] 99 % of control

C=C1C(=O)O[C@@H]2C3=C(C)C(=O)CC[C@]3(C)CC[C@@H]12
inactive: dose: 100.0 mg/kg/injection, schedule: Q04DX002 (ip), vehicle: saline with Tween-80 108 % of control

N#Cc1ccc(C(=O)C=C(C(F)(F)F)C(F)(F)F)cc1
inactive: dose: 3.13 mg/kg/injection, schedule: Q01DX009 (ip), vehicle: other 115 % of control | dose: 5.56 mg/kg/injection, schedule: Q01DX009 (ip), vehicle: other 120 % of control

Cc1c(N)n[nH]c1-c1ccccc1
inactive: dose: 50.0 mg/kg/injection, schedule: Q01DX001 (ip), vehicle: Klucel (hydroxypropylcellulose) (HPC) 100 % of control | dose: 100.0 mg/kg/injection, schedule: Q01DX001 (ip), vehicle: Klucel (hydroxypropylcellulose) (HPC) 99 % of control | dose: 200.0 mg/kg/injection, schedule: Q01DX001 (ip), vehicle: Klucel (hydroxypropylcellulose) (HPC) 106 % of control

O=C(O)CCCNS(=O)(=O)c1ccc(S(=O)(=O)NCCCC(=O)O)cc1
inactive: [10] 99 % of control | [11] 103 % of control | [12] 103 % of control

O=C(CN1C(=O)c2ccccc2C1=O)C(O)CN1C(=O)c2ccccc2C1=O (stereo unspecified)
inactive: dose: 50.0 mg/kg/injection, schedule: Q01DX005 (ip), vehicle: saline with Tween-80 94 % of control | dose: 100.0 mg/kg/injection, schedule: Q01DX005 (ip), vehicle: saline with Tween-80 94 % of control | dose: 200.0 mg/kg/injection, schedule: Q01DX005 (ip), vehicle: saline with Tween-80 100 % of control

c1cc2c(c(NC3=NCCCO3)c1)CCCC2
inactive: dose: 12.5 mg/kg/injection, schedule: Q04DX003 (ip), vehicle: saline with Tween-80 108 % of control | dose: 25.0 mg/kg/injection, schedule: Q04DX003 (ip), vehicle: saline with Tween-80 108 % of control | dose: 50.0 mg/kg/injection, schedule: Q04DX003 (ip), vehicle: saline with Tween-80 100 % of control

C1=Cc2cc(CN3CCOCC3)ccc2Nc2ccc(CN3CCOCC3)cc21
inactive: dose: 60.0 mg/kg/injection, schedule: Q01DX005 (ip), vehicle: Klucel (hydroxypropylcellulose) (HPC) 96 % of control | dose: 120.0 mg/kg/injection, schedule: Q01DX005 (ip), vehicle: Klucel (hydroxypropylcellulose) (HPC) 94 % of control | dose: 240.0 mg/kg/injection, schedule: Q01DX005 (ip), vehicle: Klucel (hydroxypropylcellulose) (HPC) 99 % of control

Nc1c(Br)cc2c(c1Br)Cc1cc(Br)ccc1-2
inactive: [5] 104 % of control | [6] 109 % of control | dose: 400.0 mg/kg/injection, schedule: Q04DX003 (ip), vehicle: saline with Tween-80 90 % of control

COc1ccc2c(c1OC)C(=O)N1C2=Cc2c(cc3c(c2OC)OCO3)CC1N(C)C (stereo unspecified)
inactive: dose: 60.0 mg/kg/injection, schedule: Q01DX005 (ip), vehicle: saline 103 % of control | dose: 120.0 mg/kg/injection, schedule: Q01DX005 (ip), vehicle: saline 100 % of control

O=c1c2c(oc3cc(OCC4CO4)ccc13)CCC2 (stereo unspecified)
inactive: [10] 93 % of control | [11] 88 % of control | [12] 95 % of control

CC(C)CCCC(C)C1CCC2C3CCC4CC(OP(=O)(O)O)CCC4(C)C3CCC12C (stereo unspecified)
inactive: [7] 99 % of control | [8] 96 % of control | [9] 93 % of control

C[N+](C)=c1ccc2nc3ccc(N)cc3sc-2c1
inactive: dose: 3.13 mg/kg/injection, schedule: Q01DX009 (ip), vehicle: saline 106 % of control | [1] 87 % of control | dose: 6.25 mg/kg/injection, schedule: Q01DX009 (ip), vehicle: saline 94 % of control | dose: 12.5 mg/kg/injection, schedule: Q01DX009 (ip), vehicle: saline 95 % of control | dose: 25.0 mg/kg/injection, schedule: Q01DX009 (ip), vehicle: saline with Tween-80 102 % of control and 103 % of control | [4] 107 % of control | [7] 95 % of control | [2] 104 % of control
